The values that follow come from article PMC7948422, “Repurposing p97 inhibitors for chemical modulation of the bacterial ClpB–DnaK bichaperone system” (The Journal of Biological Chemistry, 2020).

The test addresses T1, ClpB–DnaK bichaperone system (DnaK–DnaJ–GrpE + ClpB) (Escherichia coli, UniProt P0A6Y8+P63284).
T1 construct: full-length E. coli DnaK (residues 1–638); made in house; host or cells: E. coli BL21(DE3) for DnaK
As to the kind of experiment: Aggregate reactivation assay with KJE + ClpB. The class given is biochemical. The method, then: G6PDH was chemically denatured by mixing 5 μl of the G6PDH stock solution (441 μM) with 5 μl of buffer A (10 M urea, 16% glycerol, 40-mM DTT) preheated at 47 °C. The samples of G6PDH in buffer A were incubated for 5 min at 47 °C. Subsequently, 5 μl of denatured G6PDH was mixed with 95 μl of buffer B (50-mM Tris-HCl, pH 7.4, 20-mM Mg(OAc)2, 30-mM KCl, 1-mM EDTA, 1-mM β-mercaptoethanol) preheated at 47 °C to initiate protein refolding, which, under these conditions, is inefficient and leads to misfolding and aggregation of G6PDH ([69]). G6PDH aggregate production was arrested after 1 min (for refolding by KJE) or 15 min (for refolding by KJE with ClpB) by transferring into ice for 2 min. To observe the aggregate reactivation, aggregated G6PDH was diluted 10-fold in buffer C (50-mM Tris-HCl, pH 7.4, 20-mM MgCl2, 1-mM EDTA, 0.5-mM TCEP) containing the chaperones KJE (5.5-μM DnaK, 1.1-μM DnaJ, 1.1-μM GrpE) or KJE-ClpB (5.5-μM DnaK, 1.1-μM DnaJ, 1.1-μM GrpE, 1.65-μM ClpB (hexamer)). G6PDH in buffer C without chaperones was used as a control for a spontaneous aggregate reactivation. The chaperone-G6PDH samples (18 μl) were supplemented with 1 μl of DBeQ in DMSO or pure DMSO as a control. The samples were incubated for 2 min at 30 °C. The aggregate reactivation was initiated by adding 1 μl of 100-mM ATP, followed by incubation for 60 min at 30 °C. […] The plate was inserted into Synergy H1 plate reader (BioTek, Winooski, VT) with the chamber temperature at 30 °C, and the sample absorbance at 340 nm was measured after 10 min. The amount of NADPH produced was calculated based on the NADPH molar extinction coefficient, Ɛ340 = 6220 [M^−1 ⋅ cm^−1].
Firefly luciferase (220 μM) was diluted 300-fold in PBS buffer with 1 mg/ml bovine serum albumin and then incubated for 12 min at 45 °C. […] Luminescence was measured using Synergy H1 plate reader (BioTek, Winooski, VT).

T1 sequence (P63284 whole entry, the tested form may be a part): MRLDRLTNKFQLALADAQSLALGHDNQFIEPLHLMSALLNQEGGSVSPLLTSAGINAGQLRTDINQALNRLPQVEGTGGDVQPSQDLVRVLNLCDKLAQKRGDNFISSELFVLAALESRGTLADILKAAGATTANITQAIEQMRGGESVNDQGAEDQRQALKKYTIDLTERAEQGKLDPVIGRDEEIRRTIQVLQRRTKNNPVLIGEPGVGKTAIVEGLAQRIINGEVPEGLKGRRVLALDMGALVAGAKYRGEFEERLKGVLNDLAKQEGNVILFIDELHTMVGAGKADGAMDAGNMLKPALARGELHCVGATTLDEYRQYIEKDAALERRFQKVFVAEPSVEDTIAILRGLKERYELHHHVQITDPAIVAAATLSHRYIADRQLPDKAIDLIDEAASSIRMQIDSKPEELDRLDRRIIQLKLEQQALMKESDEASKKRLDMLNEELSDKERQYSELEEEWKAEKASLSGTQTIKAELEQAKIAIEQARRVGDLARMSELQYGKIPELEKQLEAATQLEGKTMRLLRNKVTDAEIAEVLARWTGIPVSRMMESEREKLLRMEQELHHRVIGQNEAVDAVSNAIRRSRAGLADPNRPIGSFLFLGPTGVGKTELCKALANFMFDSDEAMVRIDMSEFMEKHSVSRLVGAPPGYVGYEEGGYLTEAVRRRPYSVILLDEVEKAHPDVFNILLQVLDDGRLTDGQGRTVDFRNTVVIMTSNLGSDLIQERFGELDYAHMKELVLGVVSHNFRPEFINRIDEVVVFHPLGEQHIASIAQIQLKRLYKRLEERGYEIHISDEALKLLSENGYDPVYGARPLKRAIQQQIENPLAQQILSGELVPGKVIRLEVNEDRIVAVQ
T1 sequence (P0A6Y8 whole entry, the tested form may be a part): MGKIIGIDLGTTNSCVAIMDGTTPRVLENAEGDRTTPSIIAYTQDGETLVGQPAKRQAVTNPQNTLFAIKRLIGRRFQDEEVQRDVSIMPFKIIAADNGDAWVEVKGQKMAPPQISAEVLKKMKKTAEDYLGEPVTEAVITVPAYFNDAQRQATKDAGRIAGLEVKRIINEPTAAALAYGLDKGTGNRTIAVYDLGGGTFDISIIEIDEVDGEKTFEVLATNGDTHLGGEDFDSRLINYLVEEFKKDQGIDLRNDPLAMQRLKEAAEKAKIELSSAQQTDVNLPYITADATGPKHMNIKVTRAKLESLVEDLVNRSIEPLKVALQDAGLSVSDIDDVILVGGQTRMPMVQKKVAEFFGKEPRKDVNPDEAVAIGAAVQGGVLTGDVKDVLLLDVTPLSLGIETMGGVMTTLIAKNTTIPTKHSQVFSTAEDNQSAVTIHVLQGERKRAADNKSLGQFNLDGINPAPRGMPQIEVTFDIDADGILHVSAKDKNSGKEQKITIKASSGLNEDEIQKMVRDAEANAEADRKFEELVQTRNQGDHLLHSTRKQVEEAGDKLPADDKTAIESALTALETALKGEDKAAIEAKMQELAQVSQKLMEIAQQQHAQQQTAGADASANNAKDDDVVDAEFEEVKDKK

Regarding `c1ccc(CNc2nc(NCc3ccccc3)c3ccccc3n2)cc1` [DBeQ, N^2,N^4-dibenzylquinazoline-2,4-diamine], the IC50 (commonly the midpoint of a concentration-inhibition curve) was roughly 5 µM. Also, under “KJE + ClpB, 20 min, 25 °C”, the “inhibition of ClpB-dependent reactivation of aggregated luciferase” value is “inhibited”. For the same molecule, the “inhibition of ClpB-dependent reactivation of aggregated G6PDH” value (KJE + ClpB, 60 min, 30 °C, compared with KJE alone) is recorded as “inhibited by DBeQ with a several-fold lower IC50 than ClpB-independent reactivation by KJE alone”.
